Data on 23 compounds can be found in patent publication US9815839B2, “N-(1-(substituted-phenyl)ethyl)-9H-purin-6-amines as PI3K inhibitors” (Incyte Corporation, priority 2010, dated 2017).

SMILES strings stand for the structures.

For one test, the target named is T1, PI3Kδ (p110δ/p85α) (Homo sapiens, UniProt O00329).
T1 construct: purchased Millipore (Bedford, Mass.)
Put plainly: PI3Kδ scintillation proximity assay. Type of test: biochemical. The following applies: 20 μM ATP, 4 nM PI3Kδ. In short, it runs like this: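 Radiometric SPA: product captured on WGA beads after EDTA quench and counted, IC50 fitted against log inhibitor concentration. Reactions ran 210 min at room temperature with 4 nM PI3Kδ (p110δ/p85α), 20 μM each PIP2 and ATP plus 33P-ATP, pH 6.7 MOPS buffer, 0.5% DMSO final.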
(Scintillation proximity formats need no separation of bound from free tracer.)

Test [1] deals with Pfeiffer cell line (diffuse large B cell lymphoma). Put plainly: Pfeiffer cell proliferation assay. The following applies: Homo sapiens, Pfeiffer, Pfeiffer cells, 3-4 days plus 12 hours [3H]-thymidine incorporation. The class given is cell-based. As to the method: Example C: Pfeiffer Cell Proliferation Assay
Pfeiffer cell line (diffuse large B cell lymphoma) was purchased from ATCC (Manassas, Va.) and maintained in the culture medium recommended (RPMI and 10% FBS). To measure the anti-proliferation activity of the compounds, the Pfeiffer cells were plated with the culture medium (2×10^3 cells/well/per 200 μl) into 96-well ultra-low binding plates (Corning, Corning, N.Y.), in the presence or absence of a concentration range of test compounds. After 3-4 days, [^3H]-thymidine (1 μCi/well) (PerkinElmer, Boston, Mass.) in PBS was then added to the cell culture for an additional 12 hours before the incorporated radioactivity was separated by filtration with water through GF/B filters (Packard Bioscience, Meridenj, Conn.) and measured by liquid scintillation counting with a TopCount (Packard Bioscience).
In general terms: Uptake of a labelled nucleoside into DNA is a usual measure of proliferation.

T1 sequence (O00329 whole entry, species assumed): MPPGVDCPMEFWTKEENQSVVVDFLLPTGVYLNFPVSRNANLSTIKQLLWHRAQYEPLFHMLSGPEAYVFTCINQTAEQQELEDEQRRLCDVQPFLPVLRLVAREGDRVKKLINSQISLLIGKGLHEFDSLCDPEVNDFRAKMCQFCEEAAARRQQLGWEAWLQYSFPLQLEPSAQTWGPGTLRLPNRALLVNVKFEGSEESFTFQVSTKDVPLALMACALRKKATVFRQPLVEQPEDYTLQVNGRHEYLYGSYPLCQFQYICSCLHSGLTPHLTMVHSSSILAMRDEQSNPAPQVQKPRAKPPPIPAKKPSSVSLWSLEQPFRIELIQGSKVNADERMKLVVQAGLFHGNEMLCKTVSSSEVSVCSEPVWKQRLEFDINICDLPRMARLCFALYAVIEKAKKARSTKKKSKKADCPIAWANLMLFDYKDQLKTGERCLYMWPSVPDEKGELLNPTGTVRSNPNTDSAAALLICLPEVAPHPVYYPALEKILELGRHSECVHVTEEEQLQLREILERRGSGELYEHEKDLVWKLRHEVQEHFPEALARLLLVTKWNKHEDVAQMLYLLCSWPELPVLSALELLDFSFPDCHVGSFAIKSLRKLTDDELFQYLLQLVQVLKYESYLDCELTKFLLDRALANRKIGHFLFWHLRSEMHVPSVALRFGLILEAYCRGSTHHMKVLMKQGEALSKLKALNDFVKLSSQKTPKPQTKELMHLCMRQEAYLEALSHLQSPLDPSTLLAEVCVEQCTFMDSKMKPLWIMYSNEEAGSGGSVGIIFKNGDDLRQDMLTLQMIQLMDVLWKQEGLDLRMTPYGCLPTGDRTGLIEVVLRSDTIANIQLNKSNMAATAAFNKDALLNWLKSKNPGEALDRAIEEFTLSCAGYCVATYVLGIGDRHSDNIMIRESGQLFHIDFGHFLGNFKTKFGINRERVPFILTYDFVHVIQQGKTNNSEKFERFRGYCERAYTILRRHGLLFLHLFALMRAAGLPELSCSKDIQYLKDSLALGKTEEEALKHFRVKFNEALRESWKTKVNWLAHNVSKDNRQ
T1 sequence (P27986 whole entry partner, species assumed): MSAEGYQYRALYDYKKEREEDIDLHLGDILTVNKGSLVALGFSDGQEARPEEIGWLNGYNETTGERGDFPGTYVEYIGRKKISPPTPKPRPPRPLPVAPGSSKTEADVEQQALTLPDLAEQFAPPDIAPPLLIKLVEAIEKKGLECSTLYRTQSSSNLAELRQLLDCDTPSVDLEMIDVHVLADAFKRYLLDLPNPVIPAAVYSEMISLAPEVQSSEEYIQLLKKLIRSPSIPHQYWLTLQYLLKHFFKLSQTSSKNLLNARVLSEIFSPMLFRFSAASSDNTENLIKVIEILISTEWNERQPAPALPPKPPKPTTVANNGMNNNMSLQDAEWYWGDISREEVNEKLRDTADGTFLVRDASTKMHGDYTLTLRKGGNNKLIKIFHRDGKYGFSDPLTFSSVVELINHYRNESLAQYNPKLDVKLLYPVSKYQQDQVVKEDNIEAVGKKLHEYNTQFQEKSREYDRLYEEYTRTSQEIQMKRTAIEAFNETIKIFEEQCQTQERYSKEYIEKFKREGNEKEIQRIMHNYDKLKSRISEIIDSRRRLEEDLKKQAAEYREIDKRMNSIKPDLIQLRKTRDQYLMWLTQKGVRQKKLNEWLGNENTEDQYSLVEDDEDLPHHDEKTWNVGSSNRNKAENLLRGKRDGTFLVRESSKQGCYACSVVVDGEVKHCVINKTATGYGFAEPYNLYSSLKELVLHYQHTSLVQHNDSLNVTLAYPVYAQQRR

In the case of `Cc1c(Cl)cc(C(C)Nc2ncnc3[nH]cnc23)c(-c2ccccc2)c1-c1ccc(C(=O)NC2CC2)cc1` (stereo not shown) [Example 16, 5′-chloro-N-cyclopropyl-6′-methyl-3′-[1-(9H-purin-6-ylamino)ethyl]-1,1′:2′,1″-terphenyl-4-carboxamide], the results for the concentration for half-maximal inhibition (IC50) (against PI3Kδ (p110δ/p85α); in test [1]) were less than 50 nM and less than 100 nM, respectively.

Turning to `Cc1c(Cl)cc(C(C)Nc2ncnc3[nH]cnc23)c(-c2ccccc2)c1-c1cnc(N)nc1` (stereo not shown) [Example 17, N-{1-[6-(2-aminopyrimidin-5-yl)-4-chloro-5-methylbiphenyl-2-yl]ethyl}-9H-purin-6-amine], the IC50 (as a rule, the concentration at which inhibition is half-maximal) at PI3Kδ (p110δ/p85α) was less than 50 nM; in test [1] it was less than 100 nM.

`COc1c(C(C)Nc2ncnc3[nH]cnc23)cc(Cl)c(C)c1N1CCCC1=O` (stereo not shown) [Example 18, 1-{3-Chloro-6-methoxy-2-methyl-5-[1-(9H-purin-6-ylamino)ethyl]phenyl}pyrrolidin-2-one]: the IC50 against PI3Kδ (p110δ/p85α) was 250 to 500 nM; in test [1] it was 100 to 500 nM.

`Cc1c(Cl)cc(C(C)Nc2ncnc3[nH]cnc23)c(-c2cc(F)cc(F)c2)c1C(N)=O` (stereo not shown) [Example 19, 4-Chloro-3′,5′-difluoro-3-methyl-6-[1-(9H-purin-6-ylamino)ethyl]biphenyl-2-carboxamide]: the figures for the half-maximal inhibitory concentration (IC50) (at PI3Kδ (p110δ/p85α); in test [1]) were less than 50 nM and less than 100 nM, respectively.

In the case of `COc1c(C(C)Nc2ncnc3[nH]cnc23)cc(Cl)c(C)c1-c1cnc(N(C)C)nc1` (stereo not shown) [Example 20, N-(1-{5-chloro-3-[2-(dimethylamino)pyrimidin-5-yl]-2-methoxy-4-methylphenyl}ethyl)-9H-purin-6-amine], the half-maximal inhibitory concentration (IC50) on PI3Kδ (p110δ/p85α) is less than 50 nM; in test [1], 100 to 500 nM.

For the compound `COc1c(C(C)Nc2ncnc3[nH]cnc23)cc(Cl)c(C)c1-c1ccnn1C` (stereo not shown) [Example 21, N-{1-[5-chloro-2-methoxy-4-methyl-3-(1-methyl-1H-pyrazol-5-yl)phenyl]ethyl}-9H-purin-6-amine], the IC50 against PI3Kδ (p110δ/p85α) is less than 50 nM; in test [1], less than 100 nM.

Consider `COc1c(C(C)Nc2ncnc3[nH]cnc23)cc(Cl)c(C)c1-c1c(C)noc1C` (stereo not shown) [Example 22, N-{1-[5-chloro-3-(3,5-dimethylisoxazol-4-yl)-2-methoxy-4-methylphenyl]ethyl]-9H-purin-6-amine], for which the concentration for half-maximal inhibition (IC50) against PI3Kδ (p110δ/p85α) was less than 50 nM; in test [1] it was less than 100 nM.

In the case of `COc1ncc(-c2c(C)c(Cl)cc(C(C)Nc3ncnc4[nH]cnc34)c2OC)cn1` (stereo not shown) [Example 23, N-{1-[5-chloro-2-methoxy-3-(2-methoxypyrimidin-5-yl)-4-methylphenyl]ethyl}-9H-purin-6-amine], the IC50 is less than 50 nM on PI3Kδ (p110δ/p85α) and less than 100 nM in test [1].

On to `Cc1c(Cl)cc(C(C)Nc2ncnc3[nH]cnc23)c(-c2ccccc2)c1-c1ccc(C#N)cc1` (stereo not shown) [Example 24, 5′-chloro-6′-methyl-3′-[1-(9H-purin-6-ylamino)ethyl]-1,1′:2′,1″-terphenyl-4-carbonitrile], for which the half-maximal inhibitory concentration (IC50) at PI3Kδ (p110δ/p85α) is less than 50 nM; in test [1], 100 to 500 nM.

`COc1ncc(-c2c(C)c(Cl)cc(C(C)Nc3ncnc4[nH]cnc34)c2-c2ccccc2)cn1` (stereo not shown) [Example 25, N-{1-[4-chloro-6-(2-methoxypyrimidin-5-yl)-5-methylbiphenyl-2-yl]ethyl}-9H-purin-6-amine]: the 50% inhibitory concentration (IC50) was less than 50 nM at PI3Kδ (p110δ/p85α) and less than 100 nM in test [1].

In the case of `CC(=O)Nc1ccc(-c2c(C)c(Cl)cc(C(C)Nc3ncnc4[nH]cnc34)c2-c2ccccc2)cc1` (stereo not shown) [Example 26, N-{5′-chloro-6′-methyl-3′-[1-(9H-purin-6-ylamino)ethyl]-1,1′:2′,1″-terphenyl-4-yl}acetamide], the IC50 against PI3Kδ (p110δ/p85α) is less than 50 nM; in test [1] it was less than 100 nM.

In the case of `COc1c(C(C)Nc2ncnc3[nH]cnc23)cc(Cl)c(C)c1-c1ccc(NC(C)=O)cc1` (stereo not shown) [Example 27, N-{3′-chloro-6′-methoxy-2′-methyl-5′-[1-(9H-purin-6-ylamino)ethyl]biphenyl-4-yl}acetamide], the values for the concentration for half-maximal inhibition (IC50) (against PI3Kδ (p110δ/p85α); in test [1]) were less than 50 nM and 100 to 500 nM, respectively.

On to `COc1c(C(C)Nc2ncnc3[nH]cnc23)cc(Cl)c(C)c1-c1cccc(F)c1` (stereo not shown) [Example 28, N-[1-(5-chloro-3′-fluoro-2-methoxy-6-methylbiphenyl-3-yl)ethyl]-9H-purin-6-amine], for which the half-inhibitory concentration (IC50) is less than 50 nM at PI3Kδ (p110δ/p85α) and 100 to 500 nM in test [1].

Take `COc1c(C(C)Nc2ncnc3[nH]cnc23)cc(Cl)c(C)c1-c1cc(F)cc(F)c1` (stereo not shown) [Example 29, N-[1-(5-chloro-3′,5′-difluoro-2-methoxy-6-methylbiphenyl-3-yl)ethyl]-9H-purin-6-amine]: the IC50 is less than 50 nM against PI3Kδ (p110δ/p85α) and 100 to 500 nM in test [1].

Turning to `COc1c(C(C)Nc2ncnc3[nH]cnc23)cc(Cl)c(C)c1-c1ccc(C#N)cc1` (stereo not shown) [Example 30, 3′-chloro-6′-methoxy-2′-methyl-5′[1-(9H-purin-6-ylamino)ethyl]biphenyl-4-carbonitrile], the results for the IC50 (against PI3Kδ (p110δ/p85α); in test [1]) were less than 50 nM and 100 to 500 nM, respectively.

As for `COc1c(C(C)Nc2ncnc3[nH]cnc23)cc(Cl)c(C)c1-c1ccc(C(=O)NC2CC2)cc1` (stereo not shown) [Example 31, 3′-chloro-N-cyclopropyl-6′-methoxy-2′-methyl-5′-[1-(9H-purin-6-ylamino)ethyl]biphenyl-4-carboxamide], the results for the IC50 (against PI3Kδ (p110δ/p85α); in test [1]) were less than 50 nM and less than 100 nM, respectively.

Regarding `COc1cncc(-c2c(C)c(Cl)cc(C(C)Nc3ncnc4[nH]cnc34)c2OC)c1` (stereo not shown) [Example 34, N-{1-[5-chloro-2-methoxy-3-(5-methoxypyridin-3-yl)-4-methylphenyl]ethyl}-9H-purin-6-amine], the IC50 against PI3Kδ (p110δ/p85α) is less than 50 nM; in test [1], less than 100 nM.

With `COc1c(C(C)Nc2ncnc3[nH]cnc23)cc(Cl)c(C)c1-c1cccc(Cl)c1` (stereo not shown) [Example 35, N-[1-(3′,5-dichloro-2-methoxy-6-methylbiphenyl-3-yl)ethyl]-9H-purin-6-amine], the IC50 against PI3Kδ (p110δ/p85α) was 50 to 100 nM; in test [1], greater than 1000 nM.

Consider `COc1c(C(C)Nc2ncnc3[nH]cnc23)cc(Cl)c(C)c1-c1cncc(Cl)c1` (stereo not shown) [Example 36, N-{1-[5-chloro-3-(5-chloropyridin-3-yl)-2-methoxy-4-methylphenyl]ethyl}-9H-purin-6-amine], for which the half-maximal inhibitory concentration (IC50) at PI3Kδ (p110δ/p85α) is less than 50 nM; in test [1], less than 100 nM.

`CNC(=O)c1ccc(-c2c(C)c(Cl)cc(C(C)Nc3ncnc4[nH]cnc34)c2OC)cc1Cl` (stereo not shown) [Example 37, 3,3′-dichloro-6′-methoxy-N,2′-dimethyl-5′-[1-(9H-purin-6-ylamino)ethyl]biphenyl-4-carboxamide]: the half-maximal inhibitory concentration (IC50) was less than 50 nM at PI3Kδ (p110δ/p85α) and less than 100 nM in test [1].

For the compound `COc1c(C(C)Nc2ncnc3[nH]cnc23)cc(Cl)c(C)c1-c1ccc(C(F)(F)F)cc1` (stereo not shown) [Example 38, N-{1-[5-chloro-2-methoxy-6-methyl-4′-(trifluoromethyl)biphenyl-3-yl]ethyl}-9H-purin-6-amine], the values for the IC50 (against PI3Kδ (p110δ/p85α); in test [1]) were 100 to 250 nM and greater than 1000 nM, respectively.

With `CCOc1ccc(-c2c(C)c(Cl)cc(C(C)Nc3ncnc4[nH]cnc34)c2OC)cc1F` (stereo not shown) [Example 39, N-[1-(5-chloro-4′-ethoxy-3′-fluoro-2-methoxy-6-methylbiphenyl-3-yl)ethyl]-9H-purin-6-amine], the half-maximal inhibitory concentration (IC50) against PI3Kδ (p110δ/p85α) is 100 to 250 nM; in test [1], greater than 1000 nM.

Take `COc1c(C(C)Nc2ncnc3[nH]cnc23)cc(Cl)c(C)c1-c1cccc(C#N)c1` (stereo not shown) [Example 40, 3′-chloro-6′-methoxy-2′-methyl-5′-[1-(9H-purin-6-ylamino)ethyl]biphenyl-3-carbonitrile]: the IC50 at PI3Kδ (p110δ/p85α) is less than 50 nM; in test [1], less than 100 nM.
